Measurements: patent US7750150B2, “Process for producing acid adduct salt of polyacidic base compound” (Kowa Co., Ltd., priority 2003, dated 2010)
Where two headings read alike, the source gives them in different places.

Assays:
[1] = Solubility of the acid addition salts; conditions: for water solubility: statement in words, background art
[2] = Oral absorption; format: in vivo; conditions: statement in words, background art
[3] = TG (thermogravimetric analysis); format: physicochemical; conditions: weight change on heating
Description: (§1) A powder X-ray diffraction pattern of 2-[4-[2-(benzimidazol-2-ylthio)ethyl]piperazin-1-yl]-N-[2,4-bis(methylthio)-6-methyl-3-pyridyl]acetamide monohydrochloride 0.9-water adduct is illustrated in FIG. 1, and the results of its TG (thermogravimetric analysis)-DSC (differential scanning calorimetry) measurements are shown in FIG. 2. Further, a powder X-ray diffraction pattern of 2-[4-[2-(benzimidazol-2-ylthio)ethyl]piperazin-1-yl]-N-[2,4-bis(methylthio)-6-methyl-3-pyridyl]acetamide tetrahydrochloride 2-water adduct is illustrated in FIG. 3, and the results of its TG-DSC measurements are shown in FIG. 4. A powder X-ray diffraction pattern of 2-[4-[2-(benzimidazol-2-ylthio)ethyl]piperazin-1-yl]-N-[2,4-bis(methylthio)-6-methyl-3-pyridyl]acetamide disulfate 1.5-water adduct is illustrated in FIG. 5, and the results of its TG-DSC measurements are shown in FIG. 6. A powder X-ray diffraction pattern of 2-[4-[2-(benzimidazol-2-ylthio)ethyl]piperazin-1-yl]-N-[2,4-bis(methylthio)-6-methyl-3-pyridyl]acetamide monosulfate 4-water adduct is illustrated in FIG. 7, and the results of its TG-DSC measurements are shown in FIG. 8. A powder X-ray diffraction pattern of 2-[4-[2-(benzimidazol-2-ylthio)ethyl]piperazin-1-yl]-N-[2,4-bis(methylthio)-6-methyl-3-pyridyl]acetamide monosulfate is illustrated in FIG. 9, and the results of its TG-DSC measurements are shown in FIG. 10. A powder X-ray diffraction pattern of 2-[4-[2-(benzimidazol-2-ylthio)ethyl]piperazin-1-yl]-N-[2,4-bis(methylthio)-6-methyl-3-pyridyl]acetamide dimaleate is illustrated in FIG. 11, and the results of its TG-DSC measurements are shown in FIG. 12.
(§2) A weight change of each acid addition salt was measured after storing it for 4 days under conditions of 25° C. and 83% relative humidity. • TG: Thermogravimetric Analysis • DSC: Differential Scanning Calorimetry

[4] = Thermal stability (HPLC purity after storage relative to before storage); format: physicochemical
Experimental: (Note) Thermal Stability:
The purity of each acid addition salt of the polyacidic basic compound stored at 80° C. for 10 days was determined by HPLC measurement relative to its purity before the storage with the proviso that the disulfate 1.5-water adduct and the dimaleate were stored at 60° C. for 7 days before their storage at 80° C. for 10 days.

[5] = pH of aqueous solution; format: physicochemical
[6] = Hygroscopicity (weight change on storage at 25° C. and 83% relative humidity); format: physicochemical; conditions: weight change after 4 days at 25° C. and 83% relative humidity
Experimental: as §2

[7] = Powder X-ray diffraction (degree of crystallinity); format: physicochemical
Description: as §1

[8] = physchem
[9] = listed as tetrahydrochloride 2-water adduct
[10] = stored at 60° C. for 7 days before storage at 80° C. for 10 days
[11] = listed as 2-[4-[2-(benzimidazol-2-ylthio)ethyl]piperazin-1-yl]-N-[2,4-bis(methylthio)-6-me

| Structure (SMILES) | Solubility [1] | TG [3] | Thermal stability ([4]; stored at 80° C. for 10 days) | pH of 1% aq. Solution [5] | Hygroscopicity [6] | Powder X-ray [7] | other results |
| --- | --- | --- | --- | --- | --- | --- | --- |
| CSc1cc(C)nc(SC)c1NC(=O)CN1CCN(CCSc2nc3ccccc3[nH]2)CC1 [2-[4-[2-(benzimidazol-2-ylthio)ethyl]piperazin-1-yl]-N-[2,4-bis(methylthio)-6-methyl-3-pyridyl]acetamide] | – | – | – | – | – | – | water solubility [1]: too low; oral absorption [2]: little well |
| CSc1cc(C)nc(SC)c1NC(=O)CN1CCN(CCSc2nc3ccccc3[nH]2)CC1.Cl.Cl.Cl.Cl.O.O [Tetrahydrochloride 2-water adduct, 2-[4-[2-(benzimidazol-2-ylthio)ethyl]piperazin-1-yl]-N-[2,4-bis(methylthio)-6-methyl-3-pyridyl]acetamide tetrahydrochloride 2-water adduct] | >1000 mg/mL | Gradual removal | 98.5% | 1.97 | 10% | Low | water solubility [1]: substantially improved; Hygroscopicity [6, 9]: high hygroscopicity; Powder X-ray [7, 9]: low degree of crystallinity; oral absorption [2]: substantially improved |
| CSc1cc(C)nc(SC)c1NC(=O)CN1CCN(CCSc2nc3ccccc3[nH]2)CC1.O.O.O.O.O=S(=O)(O)O [Monosulfate 4-water adduct, 2-[4-[2-(benzimidazol-2-ylthio)ethyl]piperazin-1-yl]-N-[2,4-bis(methylthio)-6-methyl-3-pyridyl]acetamide monosulfate 4-water adduct] | 5 mg/mL | Decreased 10% | 99.4% | – | None | – | pH of aq. Solution ([5]; 0.5% aq. solution): 3.2 (0.5%) |
| Cc1cc(OCC(F)(F)F)c(NC(=O)CN2CCN(CCSc3nc4cc(F)c(F)cc4[nH]3)CC2)c(OCC(F)(F)F)n1.Cl | – | – | – | – | – | – | melting point: 186 to 187 °C |
| CSc1cc(C)nc(SC)c1NC(=O)CN1CCN(CCSc2nc3ccccc3[nH]2)CC1.CSc1cc(C)nc(SC)c1NC(=O)CN1CCN(CCSc2nc3ccccc3[nH]2)CC1.O.O.O.O=S(=O)(O)O.O=S(=O)(O)O.O=S(=O)(O)O.O=S(=O)(O)O [Disulfate 1.5-water adduct, 2-[4-[2-(benzimidazol-2-ylthio)ethyl]piperazin-1-yl]-N-[2,4-bis(methylthio)-6-methyl-3-pyridyl]acetamide disulfate 1.5-water adduct] | >1000 mg/mL | No change until | – | 2.00 | 10% | Low | Thermal stability [4, 10]: 99.6% |
| CSc1cc(C)nc(SC)c1NC(=O)CN1CCN(CCSc2nc3ccccc3[nH]2)CC1.O=C(O)/C=C\C(=O)O.O=C(O)/C=C\C(=O)O [Dimaleate, 2-[4-[2-(benzimidazol-2-ylthio)ethyl]piperazin-1-yl]-N-[2,4-bis(methylthio)-6-methyl-3-pyridyl]acetamide dimaleate] | – | – | – | 2.62 | 2% | Low | Solubility [8]: 15 mg/mL; Thermal stability [4, 10]: 93.1% |
| CSc1cc(C)nc(SC)c1NC(=O)CN1CCN(CCSc2nc3ccccc3[nH]2)CC1.O=S(=O)(O)O [Monosulfate, 2-[4-[2-(benzimidazol-2-ylthio)ethyl]piperazin-1-yl]-N-[2,4-bis(methylthio)-6-methyl-3-pyridyl]acetamide monosulfate] | 200 mg/mL | No change until | – | – | 15% | Low | pH of aq. Solution ([5]; 0.5% aq. solution): 3.2 (0.5%) |
| CSc1cc(C)nc(SC)c1NC(=O)CN1CCN(CCSc2nc3ccccc3[nH]2)CC1.Cl.O [Monohydrochloride 0.9-water adduct, 2-[4-[2-(benzimidazol-2-ylthio)ethyl]piperazin-1-yl]-N-[2,4-bis(methylthio)-6-methyl-3-pyridyl]acetamide monohydrochloride 0.9-water adduct] | 0.5 mg/mL | No change until | 99.2% | – | None | – | TG [3, 11]: without any substantial weight change; Thermal stability ([4]; stored at 80° C. for 10 days, listed as 2-[4-[2-(benzimidazol-2-ylthio)ethyl]piperazin-1-yl]-N-[2,4-bis(methylthio)-6-me): excellent in thermal stability; pH of aq. Solution ([5]; 0.05% aq. solution): 5.2 (0.05%); Hygroscopicity [6, 11]: no hygroscopicity; Powder X-ray [7, 11]: high degree of crystallinity |
